Measured values: patent US20240199546A1, “INHIBITORS OF SOLUTE CARRIER FAMILY 6A MEMBER 19 (SLC6A19) AND METHODS OF USE THEREOF” (Maze Therapeutics, Inc., priority 2022, published 2024)

Target: T1, human SLC6A19 and TMEM27 (Homo sapiens, UniProt Q695T7)
T1 construct: expressed in transfected cells
T1 sequence (Q695T7 1-634): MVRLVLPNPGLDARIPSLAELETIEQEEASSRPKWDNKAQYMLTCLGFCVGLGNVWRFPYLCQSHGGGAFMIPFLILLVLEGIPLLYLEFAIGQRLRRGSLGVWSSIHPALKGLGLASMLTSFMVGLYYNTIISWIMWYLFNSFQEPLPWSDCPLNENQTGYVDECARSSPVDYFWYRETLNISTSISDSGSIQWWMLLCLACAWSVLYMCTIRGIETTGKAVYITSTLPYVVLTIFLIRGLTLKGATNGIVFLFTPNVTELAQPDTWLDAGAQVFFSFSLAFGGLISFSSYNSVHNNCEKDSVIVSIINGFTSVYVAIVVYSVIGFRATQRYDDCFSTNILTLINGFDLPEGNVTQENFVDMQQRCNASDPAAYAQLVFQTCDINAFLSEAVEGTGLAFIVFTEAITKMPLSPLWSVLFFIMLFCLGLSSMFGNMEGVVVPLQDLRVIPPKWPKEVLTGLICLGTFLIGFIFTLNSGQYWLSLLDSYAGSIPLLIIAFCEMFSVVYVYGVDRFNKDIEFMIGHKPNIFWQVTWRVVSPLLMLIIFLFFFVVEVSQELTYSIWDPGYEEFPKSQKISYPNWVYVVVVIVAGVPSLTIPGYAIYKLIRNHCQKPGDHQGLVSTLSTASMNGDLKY
T1 sequence (Q9HBJ8 15-222 partner): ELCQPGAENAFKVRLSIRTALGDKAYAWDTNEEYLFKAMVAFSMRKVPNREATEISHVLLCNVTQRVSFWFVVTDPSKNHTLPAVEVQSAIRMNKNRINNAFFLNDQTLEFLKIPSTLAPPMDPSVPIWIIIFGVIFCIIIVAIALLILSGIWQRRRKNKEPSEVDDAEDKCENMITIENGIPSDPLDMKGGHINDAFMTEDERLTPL
Experiment: Radiolabelled (3H) leucine uptake in CHO cells with doxycycline-inducible expression of human SLC6A19 and TMEM27 (Example B-1)
Type: cell-based
Conditions: CHO cells with doxycycline-inducible expression of human SLC6A19 and TMEM27, read-out: SLC6A19_Radioligand Uptake Assay IC50
Summary of the method: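 CHO cells were induced with doxycycline for 18 h at 37 °C, washed in HBSS, then exposed to compounds for 1 h: 8-point, 3-fold dilutions in duplicate, 0.5% DMSO final. Uptake measured by scintillation counting after 2 h shaking. Activity normalized with positive control as 0% and DMSO as 100%.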

Row | Structure (SMILES) | IC50 [nM]
1 | CO[C@H]1C[C@@H](Oc2cc3[nH]c(CNC(C)=O)cc3cc2Cl)C1 [Compound 463, N-((5-chloro-6-((cis)-3-methoxycyclobutoxy)-1H-indol-2-yl)methyl)acetamide] | > 8730
2 | CC(=O)NCc1cc2cc(Cl)c(OC[C@H]3CCOC3)cc2[nH]1 [Compound 464, (S)-N-((5-chloro-6-((tetrahydrofuran-3-yl)methoxy)-1H-indol-2-yl)methyl)acetamide] | 1350
3 | CC(=O)NCc1cc2cc(Cl)c(OC[C@H]3CCCO3)cc2[nH]1 [Compound 465, (R)-N-((5-chloro-6-((tetrahydrofuran-2-yl)methoxy)-1H-indol-2-yl)methyl)acetamide] | 6210
4 | CC(=O)NCc1cc2cc(Cl)c(OC[C@@H]3CCCO3)cc2[nH]1 [Compound 466, (S)-N-((5-chloro-6-((tetrahydrofuran-2-yl)methoxy)-1H-indol-2-yl)methyl)acetamide] | 2960
5 | O=C(NCc1cc2cc(OC(F)(F)F)c(CCc3cocn3)cc2[nH]1)N1CCC1 [Compound 467, N-((6-(2-(oxazol-4-yl)ethyl)-5-(trifluoromethoxy)-1H-indol-2-yl)methyl)azetidine-1-carboxamide] | 145
6 | O=C(NCc1cc2cc(OC(F)(F)F)c(CCc3cocn3)cc2[nH]1)N1CCCC1 [Compound 468, N-((6-(2-(oxazol-4-yl)ethyl)-5-(trifluoromethoxy)-1H-indol-2-yl)methyl)pyrrolidine-1-carboxamide] | 422
7 | Cc1cc(CNc2cc3[nH]c(CNC(=O)N4CCCC4)cc3cc2Cl)no1 [Compound 469, N-((5-chloro-6-(((5-methylisoxazol-3-yl)methyl)amino)-1H-indol-2-yl)methyl)pyrrolidine-1-carboxamide] | 392
8 | Cc1c(CNC(=O)N2CCC2)[nH]c2cc(OCc3cscn3)c(Cl)cc12 [Compound 473, N-((5-chloro-3-methyl-6-(thiazol-4-ylmethoxy)-1H-indol-2-yl)methyl)azetidine-1-carboxamide] | 293
9 | O=C(NCc1[nH]c2cc(OCc3cscn3)c(Cl)cc2c1Cl)N1CCC1 [Compound 474, N-((3,5-dichloro-6-(thiazol-4-ylmethoxy)-1H-indol-2-yl)methyl)azetidine-1-carboxamide] | 553
10 | O=C(NCc1cc2cc(C(F)(F)F)c(OCc3ccon3)cc2[nH]1)N1CCCC1 [Compound 476, N-((6-(isoxazol-3-ylmethoxy)-5-(trifluoromethyl)-1H-indol-2-yl)methyl)pyrrolidine-1-carboxamide] | 408
11 | O=C(NCc1cc2cc(C(F)(F)F)c(OCc3ccon3)cc2[nH]1)N1CCC1 [Compound 477, N-((6-(isoxazol-3-ylmethoxy)-5-(trifluoromethyl)-1H-indol-2-yl)methyl)azetidine-1-carboxamide] | 383
12 | O=C(NCc1cc2cc(OC(F)(F)F)c(OCc3cocn3)cc2[nH]1)N1CCC1 [Compound 480, N-((6-(oxazol-4-ylmethoxy)-5-(trifluoromethoxy)-1H-indol-2-yl)methyl)azetidine-1-carboxamide] | 372
13 | [2H]C([2H])([2H])C1(C(=O)NCc2cc3cc(F)c(OCc4cscn4)cc3[nH]2)CC1 [Compound 482, N-((5-fluoro-6-(thiazol-4-ylmethoxy)-1H-indol-2-yl)methyl)-1-(methyl-d3)cyclopropane-1-carboxamide] | 149
14 | [2H]C([2H])([2H])C1(C(=O)NCc2cc3cc(Cl)c(OCc4cscn4)cc3[nH]2)CC1 [Compound 483, N-((5-chloro-6-(thiazol-4-ylmethoxy)-1H-indol-2-yl)methyl)-1-(methyl-d3)cyclopropane-1-carboxamide] | 170
15 | Cc1cc(COc2cc3[nH]c(CNC(=O)C4(C#N)CC4)cc3cc2Cl)on1 [Compound 484, N-((5-chloro-6-((3-methylisoxazol-5-yl)methoxy)-1H-indol-2-yl)methyl)-1-cyanocyclopropane-1-carboxamide] | 199
16 | Cc1cc(COc2cc3[nH]c(CNC(=O)C(C)(C)C#N)cc3cc2Cl)on1 [Compound 485, N-((5-chloro-6-((3-methylisoxazol-5-yl)methoxy)-1H-indol-2-yl)methyl)-2-cyano-2-methylpropanamide] | 578
17 | Cc1cc(COc2cc3[nH]c(CNC(=O)C4(C#N)CCC4)cc3cc2Cl)on1 [Compound 487, N-((5-chloro-6-((3-methylisoxazol-5-yl)methoxy)-1H-indol-2-yl)methyl)-1-cyanocyclobutane-1-carboxamide] | 367

Row | Structure (SMILES) | IC50 [nM]
18 | O=C(NCc1cc2cc(Cl)c(OCc3ccon3)cc2[nH]1)C1CCC1 [Compound 488, N-((5-chloro-6-(isoxazol-3-ylmethoxy)-1H-indol-2-yl)methyl)cyclobutanecarboxamide] | 161
19 | O=C(NCc1cc2cc(Cl)c(OCc3cscn3)cc2[nH]1)C1CCCC1 [Compound 489, N-((5-chloro-6-(thiazol-4-ylmethoxy)-1H-indol-2-yl)methyl)cyclopentanecarboxamide] | 325
20 | O=C(NCc1cc2cc(Cl)c(OCc3cscn3)cc2[nH]1)C1CCC1 [Compound 490, N-((5-chloro-6-(thiazol-4-ylmethoxy)-1H-indol-2-yl)methyl)cyclobutanecarboxamide] | 178
21 | O=C(NCc1cc2cc(Cl)c(OCc3ccon3)cc2[nH]1)C1CC(F)(F)C1 [Compound 491, N-((5-chloro-6-(isoxazol-3-ylmethoxy)-1H-indol-2-yl)methyl)-3,3-difluorocyclobutane-1-carboxamide] | 814
22 | O=C(NCc1cc2cc(Cl)c(OCc3ccon3)cc2[nH]1)C1CCCC1 [Compound 492, N-((5-chloro-6-(isoxazol-3-ylmethoxy)-1H-indol-2-yl)methyl)cyclopentanecarboxamide] | 359
23 | O=C(NCc1cc2cc(F)c(OCc3ccccn3)cc2[nH]1)C1CC1 [Compound 505, N-((5-fluoro-6-(pyridin-2-ylmethoxy)-1H-indol-2-yl)methyl)cyclopropanecarboxamide] | 203
24 | CC1(C(=O)NCc2cc3cc(Cl)c(OCc4cscn4)cc3[nH]2)CCC1 [Compound 506, N-((5-chloro-6-(thiazol-4-ylmethoxy)-1H-indol-2-yl)methyl)-1-methylcyclobutane-1-carboxamide] | 331
25 | CC1(C(=O)NCc2cc3cc(F)c(OCc4cscn4)cc3[nH]2)CCC1 [Compound 507, N-((5-fluoro-6-(thiazol-4-ylmethoxy)-1H-indol-2-yl)methyl)-1-methylcyclobutane-1-carboxamide] | 327
26 | CC1(C(=O)NCc2cc3cc(OC(F)(F)F)c(OCc4ccon4)cc3[nH]2)CC1 [Compound 508, N-((6-(isoxazol-3-ylmethoxy)-5-(trifluoromethoxy)-1H-indol-2-yl)methyl)-1-methylcyclopropane-1-carboxamide] | 293
27 | CC1(C(=O)NCc2cc3cc(OC(F)(F)F)c(CCc4cscn4)cc3[nH]2)CC1 [Compound 509, 1-methyl-N-((6-(2-(thiazol-4-yl)ethyl)-5-(trifluoromethoxy)-1H-indol-2-yl)methyl)cyclopropane-1-carboxamide] | 1520
28 | CC1(C(=O)NCc2cc3cc(OC(F)(F)F)c(CCc4ccon4)cc3[nH]2)CC1 [Compound 510, N-((6-(2-(isoxazol-3-yl)ethyl)-5-(trifluoromethoxy)-1H-indol-2-yl)methyl)-1-methylcyclopropane-1-carboxamide] | 385
29 | O=C(CN1CCC1)NCc1cc2cc(Cl)c(OCc3cscn3)cc2[nH]1 [Compound 512, 2-(azetidin-1-yl)-N-((5-chloro-6-(thiazol-4-ylmethoxy)-1H-indol-2-yl)methyl)acetamide] | 6780
30 | O=C(CC(F)F)NCc1cc2cc(Cl)c(OCc3cscn3)cc2[nH]1 [Compound 513, N-((5-chloro-6-(thiazol-4-ylmethoxy)-1H-indol-2-yl)methyl)-3,3-difluoropropanamide] | 86.2
31 | CC1(C(=O)NCc2cc3cc(OC(F)(F)F)c(CCc4cocn4)cc3[nH]2)CC1 [Compound 514, 1-methyl-N-((6-(2-(oxazol-4-yl)ethyl)-5-(trifluoromethoxy)-1H-indol-2-yl)methyl)cyclopropane-1-carboxamide] | 408
32 | CCC(=O)NCc1cc2c(F)cc(OCc3cscn3)cc2[nH]1 [Compound 515, N-((4-fluoro-6-(thiazol-4-ylmethoxy)-1H-indol-2-yl)methyl)propionamide] | 116
33 | O=C(CC(F)F)NCc1cc2cc(F)c(OCc3cscn3)cc2[nH]1 [Compound 516, 3,3-difluoro-N-((5-fluoro-6-(thiazol-4-ylmethoxy)-1H-indol-2-yl)methyl)propanamide] | 88.9
